Assay results from patent publication US20220264883A1, “IMIDAZOTHIAZOLE COMPOUNDS AND METHODS FOR TREATING PLANT NEMATODE INFECTIONS” (The Governing Council of the University of Toronto, priority 2019, published 2022).

Legend:
[1] = system: Haemonchus contortus eggs; assay: Haemonchus contortus egg hatching assay; format: in vivo; settings: for Hatch Rate: 60 μM, 48 hours, ± standard deviation; for reduction of egg hatching relative to the untreated mock control: 60 micromolar, 48-hour treatment
Experimental: Fresh sheep faeces containing eggs of the MHco3(ISE) strain of H. contortus was supplied by Dr. Doug Colwell and Dawn Gray (Lethbridge Research Station, Agriculture and Agri-Food Canada). Experimental infections used to generate this material were carried out using established methods^72, and were approved by the Lethbridge AAFC Animal Care committee and conducted under animal use license ACC1407. Sheep faeces containing H. contortus eggs were stored at 20° C. for no longer than 48 h before harvesting eggs for use. Eggs were isolated from faeces using a standard saturated salt flotation method^61 immediately before each egg hatch assay. Approximately 100 eggs suspended in 100 μl of water were added to each well of a 96-well plate, and the exemplary compounds of the application were tested at 60 μM, 0.6% DMSO (v/v). Egg hatch rates were determined 48 hours after the initial set-up of the assay by the addition of iodine tincture to stop development. Example 13: Arabidopsis thaliana greening experiments

Arabidopsis thaliana = Arabidopsis thaliana greening experiments; format: in vivo; settings: 5, 15 and 45 micromolar, greening after 4 days
Experimental: Greening experiments were performed with Arabidopsis thaliana seeds of wild type Col-0; seeds were surface sterilized in bleach and plated onto 0.5×MS, 0.5% sucrose agar medium supplemented with compounds of interest at 5, 15 and 45 μM concentrations. After 4 d of stratification at 4° C., plates were transferred to a growth chamber (16 h/8 h, 150 μE/m^2) and greening recorded after 4 days. Pictures were recorded by camera (SONY a7s) with FE1.8/55 lens (FE 55 mm F1.8 ZA; SEL55F18Z). Experiments were performed in triplicate for each treatment.

M. incognita = assay: Meloidogyne incognita infectivity assays (tomato roots in soil); format: in vivo; settings: 45 μM in soil, 8 weeks, eggs per mg root relative to DMSO control
Experimental: (§1) An M. incognita population originally collected from grape (Vitis vinifera) in Parlier, Calif., was used for all experiments, and they were maintained on tomato plants (Solanum lycopersicum ‘Rutgers’) as previously described^73. Infective J2 juveniles were collected as described in^73. For the infectivity assays, 90 grams of soil (1:1 sand:loam mix) was added to each cell of several 6-cell plastic garden packs. The soil was drenched with 18 mL of deionized water containing dissolved chemical or DMSO alone. 2,500 infective J2 juveniles were then added to the soil in 2 mL of deionized water, for a total water volume of 20 mL. The final concentration of the chemicals in water was 45 μM. The DMSO concentration varied from 0.1% to 0.8% (v/v) depending on the stock concentration of the chemical. The highest DMSO concentration was used as the DMSO control. The J2s were incubated in the soil and chemical for 24 hours, after which two- to three-week old tomato seedlings were transplanted into the soil (one plant per cell). Two replicates were performed for each chemical treatment, and four replicates were done for the DMSO controls. The whole experiment was replicated twice, in two different batches on two different days, for a total of four replicates for each chemical treatment, and eight replicates for the DMSO controls. Inoculated plants were grown for 8 weeks in a greenhouse, as described^73, under long-day conditions (16-h photoperiod) with 26/18° C. day/night temperatures. After 8 weeks, the plants were destructively harvested. The tops were removed and discarded, and roots were gently washed with water to remove adhering soil. Eggs were extracted by placing rinsed roots in 0.6% sodium hypochlorite and agitating at 300 rpm for 3 min. Roots were then rinsed over nested 250- and 25.4-μm sieves, with eggs collected from the latter and suspended in water. Roots were dried in a 65° C. oven for at least 24 hours, after which dry roots were weighed. The number of eggs from each plant root was counted on a dissection microscope using a haemocytometer, and the number of eggs per milligram of root was calculated by dividing the total egg number by the mass of the dried root material. An average was taken across the replicates performed on the same day, and then normalized to the DMSO control average. To calculate percent effectiveness at inhibiting reproduction, the normalized values were subtracted from 1, and then multiplied by 100. An average percent effectiveness value was then calculated across the two different batches carried out on different days.

C57BL/6 mice = assay: Mouse studies (oral dosing, pathologies); format: in vivo; settings: oral dose 50 mg/kg over several days
Experimental: Female C57BL/6 mice (bred in house, breeding pairs originally purchased from Charles River, Canada) 6-8 weeks of age were used for all experiments. Animal experiments were approved by the University of Calgary's Animal Care Committee. Infected mice were orally gavaged with a 200 third stage Heligmosomoides polygyrus larvae (maintained in house. Original stock was a gift from Dr. Allen Shostak, University of Alberta, Canada) and euthanized on day 22 post infection. […] Mice were treated orally with 5 daily doses of exemplary compound Ia (50 mg/kg resuspended in DMSO). Control mice were given DMSO only as a control.

S. cerevisiae = assay: Saccharomyces cerevisiae (budding yeast) dose-response experiments; format: cell-based; settings: non-target system; growth over 18 hours
Experimental: A saturated culture of the yeast strain RY0568 was diluted to an OD600 of 0.015 with fresh YPD media (see ref. 62). 100 μL of this dilute yeast suspension was added to each well of a 96-well plate. The yeast were grown for 4 hours at 30° C. with shaking at 140 rpm. Using a multichannel pipette, 1 μL of chemical solution was added to each well to achieve the desired final concentrations. The final DMSO concentration was 1% (v/v). The microwell plate was then loaded into a TECAN plate reader set at 30° C. The OD600 of each well was measured over an 18-hour period, and the plate was shaken intermittently throughout the run. The areas under the resultant growth curves were calculated using R scripts adapted from those found in the MESS package. The area under the curve at each concentration of a dose-response assay was divided by the area under the curve for the corresponding DMSO control, resulting in a “relative fitness” value for each concentration tested. Three biological replicates were performed for each dose-response experiment, and the relative fitness values were averaged across the three replicates.

tomato plants = assay: Root mass of tomato plants in the infectivity assays; format: in vivo, Solanum lycopersicum; settings: 45 μM
Experimental: as §1

M. chitwoodi = assay: Meloidogyne chitwoodi infectivity assays (tomato roots in soil); format: in vivo; settings: 45 μM in soil, 8 weeks, egg counts relative to DMSO control
Experimental: An M. incognita population originally collected from grape (Vitis vinifera) in Parlier, Calif., was used for all experiments, and they were maintained on tomato plants (Solanum lycopersicum ‘Rutgers’) as previously described^73. Infective J2 juveniles were collected as described in^73. For the infectivity assays, 90 grams of soil (1:1 sand:loam mix) was added to each cell of several 6-cell plastic garden packs. The soil was drenched with 18 mL of deionized water containing dissolved chemical or DMSO alone. 2,500 infective J2 juveniles were then added to the soil in 2 mL of deionized water, for a total water volume of 20 mL. The final concentration of the chemicals in water was 45 μM. The DMSO concentration varied from 0.1% to 0.8% (v/v) depending on the stock concentration of the chemical. The highest DMSO concentration was used as the DMSO control. The J2s were incubated in the soil and chemical for 24 hours, after which two- to three-week old tomato seedlings were transplanted into the soil (one plant per cell). […] The number of eggs from each plant root was counted on a dissection microscope using a haemocytometer, and the number of eggs per milligram of root was calculated by dividing the total egg number by the mass of the dried root material. […] An average percent effectiveness value was then calculated across the two different batches carried out on different days. […]

[2] = Limit of solubility / precipitation in assay media; format: physicochemical; settings: 100 μM in water, 0.5% DMSO (zebrafish assay)

| Structure (SMILES) | Hatch Rate [1] | reduction of egg hatching relative to the untreated mock control [1] | effect on health and greening of Arabidopsis thaliana plants (phytotoxicity) (Arabidopsis thaliana) | % effectiveness at inhibiting reproduction of M. incognita (M. incognita) | obvious pathologies in comparison with the solvent control (C57BL/6 mice) | S. cerevisiae LC50 (S. cerevisiae) | Normalized root mass (relative to DMSO control) (tomato plants) | % effectiveness at inhibiting reproduction of M. chitwoodi (M. chitwoodi) | compound precipitation [2] |
| --- | --- | --- | --- | --- | --- | --- | --- | --- | --- |
| Fc1ccc(-c2cn3ccsc3n2)cc1 [Ib] | 0.0 ± 0.0% | completely inhibited egg hatching |  |  |  |  |  |  |  |
| Clc1ccc(-c2cn3ccsc3n2)cc1 [Ia] | 1.0 ± 1.7% | 99% | some phytotoxicity and yellowing at the highest concentration | 27.1% | did not exhibit any obvious pathologies | inactive | 1.3 | 42.6% | Some compound precipitation was observed |
